On the set-up of series [1]: method as in PMID 31894985. To be noted: between 2,2‐difluorobutanol and 2,2‐difluoropentanol; cited from earlier work.
The nature of series [2]: octanol‐water partition coefficient (logP) by 19F NMR‐based protocol. The settings on record: for logP: measured octanol‐water partition coefficient, 19F NMR‐based protocol; for increase in lipophilicity on addition of a methyl group: methylated compound vs its nonmethylated analogue (46a vs 46b; 47a vs 47b). It counts as physicochemical. The source says: The effect of the added bridge‐methyl group on physicochemical properties was investigated.
Figure 2 Comparison of measured octanol‐water partition coefficients between phenyl, tolyl, BCP, and 2‐MeBCP.

Consider five compounds from publication PMC13411385, “Methyl on the Bridge: 2‐Methyl Propellane as Precursor for 1,3‐Substituted 2‐Methylated Bicyclo[1.1.1]Pentanes” (Chemistry (Weinheim an Der Bergstrasse, Germany), 2025).

As for `CCCC(F)(F)CO` [2,2‐difluoropentanol], the ΔlogP in series [1] was 0.58 logP units.

`CC1C2CC1(C(F)(F)CO)C2` (stereo not shown) [46a, 2,2‐difluoro‐2‐(2‐methylbicyclo[1.1.1]pentan‐1‐yl)ethan‐1‐ol]: in series [2], the logP was found to be 2.11 and the “increase in lipophilicity on addition of a methyl group” value was found to be 0.54 logP units.

`OCC(F)(F)C12CC(C1)C2` [46b, 2‐(bicyclo[1.1.1]pentan‐1‐yl)‐2,2‐difluoroethan‐1‐ol]: the lipophilicity (logP) in series [2] was 1.57.

Consider `Cc1ccccc1C(F)(F)CO` [47a, 2,2‐difluoro‐2‐(o‐tolyl)ethan‐1‐ol], for which, in series [2], the logP was 2.03 and the “increase in lipophilicity on addition of a methyl group” value is reported as 0.46 logP units.

The compound `OCC(F)(F)c1ccccc1` [47b, 2,2‐difluoro‐2‐phenylethan‐1‐ol] showed a lipophilicity (logP) in series [2] of 1.57.

Usually logP stands for a log measure of how a compound divides between an organic and an aqueous phase. Low values mean lower lipophilicity, high ones higher lipophilicity.
